The subject of one assay is HT-29. The assay is described as follows: Cytotoxicity against human HT-29 cells by MTT assay. Format: functional, cell-based. For orientation: Tetrazolium dyes change colour on reduction, which living cells bring about.
Another assay deals with A549. Put plainly: Cytotoxicity against human A549 cells by MTT assay. Format: functional, cell-based.
The test system of a further assay is P388. Put plainly: Cytotoxicity against mouse P388 cells by MTT assay. Format: functional, cell-based.
Assay [1] has as its system Human betaherpesvirus 5. The assay is described as follows: Antiviral activity against Human cytomegalovirus infected in Human HEL cells assessed as virus-induced cytopathic effect at 1 ug/ml treated 1 hr prior to infection measured after 7 days. Format: functional, organism-based.
The next assay deals with Serratia marcescens. Put plainly: Antibacterial activity against Serratia marcescens ATCC 25419 at 100 ug/ml after 24 hrs. Format: functional, organism-based.
The test system of another assay is Shigella sonnei. The assay is described as follows: Antibacterial activity against Shigella sonnei ATCC 11060 at 100 ug/ml after 24 hrs. Format: functional, organism-based.
A further assay concerns Klebsiella aerogenes. The assay is described as follows: Antibacterial activity against Enterobacter aerogenes ATCC 13048 at 100 ug/ml after 24 hrs. Format: functional, organism-based.
The test system of assay [2] is Human betaherpesvirus 5. Put plainly: Antiviral activity against Human cytomegalovirus infected in Human HEL cells assessed as virus-induced cytopathic effect treated 1 hr prior to infection measured after 7 days. Format: functional, organism-based. To be noted: Human betaherpesvirus 5, HEL. (In general: Cytopathic effects are the visible damage that an infection or toxin causes in cultured cells.)

A further assay concerns Yersinia enterocolitica. The assay is described as follows: Antibacterial activity against Yersinia enterocolitica ATCC 23715 at 100 ug/ml after 24 hrs. Format: functional, organism-based.
The next assay concerns Salmonella enteritidis. The assay is described as follows: Antibacterial activity against Salmonella enteritidis ATCC 13076 at 100 ug/ml after 24 hrs. Format: functional, organism-based. The note with it: Salmonella enterica subsp. enterica serovar Enteritidis.

Calls of active or inactive are those of the source. The rule behind the calls is not given here.

In general, EC50 refers to the concentration giving half of the maximal effect.

As for `CO[C@H](C(=O)[C@@H](O)[C@@H](C)O)[C@@H]1Cc2cc3cc(O[C@H]4C[C@@H](O[C@@H]5C[C@@H](O)[C@H](O)[C@@H](C)O5)[C@H](O)[C@@H](C)O4)c(C)c(O)c3c(O)c2C(=O)[C@H]1O[C@H]1C[C@@H](O[C@@H]2C[C@@H](O)[C@@H](O[C@@H]3C[C@](C)(O)[C@H](O)[C@@H](C)O3)[C@@H](C)O2)[C@H](O)[C@@H](C)O1` [PLICAMYCIN], the EC50 in the assay with HT-29 was determined as 70 nM; in the assay with A549 it was 60 nM; in the assay with P388, 50 nM.

`C=C(C)[C@@H]1CC(=O)C[C@H]2C(=O)[C@@H]3[C@@H]4C(=C[C@@H]12)C(=O)O[C@@H]4C[C@]3(C)O`: the result in the assay on Human betaherpesvirus 5 [1], with Serratia marcescens, in the assay on Shigella sonnei, in the assay with Klebsiella aerogenes, with Yersinia enterocolitica and with Salmonella enteritidis was inactive. Also, the EC50 in the assay with HT-29 is over 20000 nM; in the assay on A549, over 20000 nM; in the assay with Human betaherpesvirus 5 [2] it was over 50 µg/mL; with P388 it was 11800 nM.

These data come from ChEMBL document CHEMBL3124913, “Sinugyrosanolide A, an unprecedented C-4 norcembranoid, from the Formosan soft coral Sinularia gyrosa” (Bioorg Med Chem Lett, 2014).
